For one test, the system named is HEK293. Briefly: Induction of VEGF in HEK293 cells by ELISA. The settings on record: Homo sapiens.
In another test the target is Egl nine homolog 1 (Homo sapiens, UniProt Q9GZT9). Kind of test: Inhibition of human EGLN1.
Chain of Egl nine homolog 1 (Q9GZT9 whole entry): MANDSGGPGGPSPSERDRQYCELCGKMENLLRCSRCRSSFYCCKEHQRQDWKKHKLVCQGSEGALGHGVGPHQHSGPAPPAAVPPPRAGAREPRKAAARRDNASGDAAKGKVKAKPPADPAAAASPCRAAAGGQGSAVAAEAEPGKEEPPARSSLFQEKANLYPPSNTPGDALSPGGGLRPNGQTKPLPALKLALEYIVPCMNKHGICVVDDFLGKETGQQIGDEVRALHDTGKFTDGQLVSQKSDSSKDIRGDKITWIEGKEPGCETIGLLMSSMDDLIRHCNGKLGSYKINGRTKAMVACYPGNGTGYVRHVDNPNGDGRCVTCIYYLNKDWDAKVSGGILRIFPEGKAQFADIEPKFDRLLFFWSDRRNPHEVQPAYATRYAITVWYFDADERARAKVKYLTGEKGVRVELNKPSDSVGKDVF

`O=C(NCc1ccccc1)c1ccc2cccnc2c1O` displayed an EC50 in the test on HEK293 of 0.89 µM.

`O=C(Nc1ccccc1)c1ccc2cccnc2c1O` registered an EC50 in the test with HEK293 of 0.63 µM.

The compound `O=C(Nc1cccnc1)c1ccc2cccnc2c1O` registered an EC50 in the test on HEK293 of 1.9 µM.

Compound `COC(=O)c1ccc(NC(=O)c2ccc3cccnc3c2O)cc1` showed an EC50 with HEK293 of over 100 µM.

In the test with HEK293, `N#Cc1cccc(NC(=O)c2ccc3cccnc3c2O)c1` had an EC50 of 0.42 µM.

As for `Cc1cc(F)cc(NC(=O)c2ccc3cccnc3c2O)c1`, in the test on HEK293, the EC50 worked out at 0.89 µM.

For `COc1ccc(CNC(=O)c2ccc3cccnc3c2O)cc1`, the EC50 in the test on HEK293 turned out to be 0.62 µM.

In the test on HEK293, `O=C(NCc1ccc(Cl)cc1)c1ccc2cccnc2c1O` returned a 50% effective concentration (EC50) of 3.1 µM.

On to `O=C(Nc1ccc(C(F)(F)F)cc1)c1ccc2cccnc2c1O`, for which, in the test with HEK293, the EC50 is over 100 µM.

Regarding `N#Cc1ccc(NC(=O)c2ccc3cccnc3c2O)cc1`, it took 0.14 µM to reach a half-maximal effect in the test on HEK293 (EC50).

Consider `O=C(NCCc1ccccc1)c1ccc2cccnc2c1O`, for which it took 0.58 µM to reach a half-maximal effect in the test with HEK293 (EC50).

Compound `O=C(O)c1ccc2cccnc2c1O` returned an IC50 at Egl nine homolog 1 of over 100 µM.

Compound `COc1cc(NC(=O)c2ccc3cccnc3c2O)cc(OC)c1` gave an EC50 in the test on HEK293 of 3.2 µM.

For `N#CCNC(=O)c1ccc2cccnc2c1O`, the 50% effective concentration (EC50) with HEK293 was 4.1 µM.

As for `O=C(O)CNC(=O)c1ccc2cccnc2c1O`, the EC50 in the test on HEK293 was over 100 µM.

Source of the values: ChEMBL document CHEMBL1139686, “Structure-based design, synthesis, and SAR evaluation of a new series of 8-hydroxyquinolines as HIF-1alpha prolyl hydroxylase inhibitors” (Bioorg Med Chem Lett, 2006).
